Laboratory results as given in patent US20110105623A1 (Biogenic Innovations, LLC, priority 2009, published 2011).
Several values for one entry are separate records, joined by “and”; a condition that tells them apart may be missing. Identical values can stand only once. Like-named read-outs stand apart in the source and are kept apart here.

Key:
Format in all cases: cell-based
[1] = test system: Staphylococcus aureus; experiment: USP <51> AET in cosmetic cream/composition; conditions: 10% MSM, Composition #2; 14, 28 Days
[2] = test system: Rhinovirus type 14 (ATCC #VR-284)
[3] = test system: Bifidobacterium bifidum; experiment: Probiotic growth in media supplemented with MSM; set-up: unit not given here
Source text: Plates were then counted. […] Data are presented in Cfu/mL.

Substance: Methylsulfonylmethane [MSM]
- Log Reduction from Initial Microorganism Inoculum [1]: 5.7 log
- Average Log Stimulation [2]: 0.053log10 and 0.11log10
- Average Percent Stimulation [2]: 11.49% and 22.38%
- Average TCID50 [2]: 4.42log10 and 5.00log10 and 5.58log10 and 5.42log10 and 5.67log10 and 5.25log10
- Log Stimulation [2]: 0.08log10 and 0.00log10 and 0.17log10
- TCID50 [2]: 4.25log10 and 4.50log10 and 4.75log10 and 5.00log10 and 5.25log10 and 5.50log10 and 6.00log10 and 5.75log10
- average log10 reduction ([2]; 1% MSM): 0.14 log10
- average percent reduction ([2]; 1% MSM): 27.56%
- average log10 reduction ([2]; 2% MSM): 0.42 log10
- average percent reduction ([2]; 2% MSM): 61.98%
- average log10 reduction ([2]; 3% MSM): 0.11 log10
- average percent reduction ([2]; 3% MSM): 22.38%
- average log10 reduction ([2]; 4% MSM): 0.28 log10
- average percent reduction ([2]; 4% MSM): 47.52%
- HillSlope, best-fit value ([2]; log(inhibitor) vs. normalized response, variable slope): 0.6280
- LogIC50, best-fit value ([2]; log(inhibitor) vs. normalized response, variable slope, dose in mM): 1.582
- Growth of Bifidobacteruim bifidum ([3]; 0.125% MSM, 0 h): 1.64
- Growth of Bifidobacteruim bifidum ([3]; 0.125% MSM, 8 h): 1.73
- Growth of Bifidobacteruim bifidum ([3]; 0.125% MSM, 16 h): 6.55
- Growth of Bifidobacteruim bifidum ([3]; 0.125% MSM, 24 h): 2.70
- Growth of Bifidobacteruim bifidum ([3]; 0.125% MSM, 32 h): 3.37
- Growth of Bifidobacteruim bifidum ([3]; 0.125% MSM, 40 h): 4.19
- Growth of Bifidobacteruim bifidum ([3]; 0.125% MSM, 48 h): 6.41
- Growth of Bifidobacteruim bifidum ([3]; 0.125% MSM, 56 h): 9.97
- Growth of Bifidobacteruim bifidum ([3]; 0.125% MSM, 64 h): 11.34
- Growth of Bifidobacteruim bifidum ([3]; 0.125% MSM, 72 h): 10.00
- Growth of Bifidobacteruim bifidum ([3]; 0.2% MSM, 0 h): 1.82
- Growth of Bifidobacteruim bifidum ([3]; 0.2% MSM, 8 h): 2.08
- Growth of Bifidobacteruim bifidum ([3]; 0.2% MSM, 16 h): 5.22
- Growth of Bifidobacteruim bifidum ([3]; 0.2% MSM, 24 h): 6.15
- Growth of Bifidobacteruim bifidum ([3]; 0.2% MSM, 32 h): 5.03
- Growth of Bifidobacteruim bifidum ([3]; 0.2% MSM, 40 h): 8.14
- Growth of Bifidobacteruim bifidum ([3]; 0.2% MSM, 48 h): 8.55
- Growth of Bifidobacteruim bifidum ([3]; 0.2% MSM, 56 h): 9.00
- Growth of Bifidobacteruim bifidum ([3]; 0.2% MSM, 64 h): 10.19
- Growth of Bifidobacteruim bifidum ([3]; 0.2% MSM, 72 h): 9.10
- Growth of Bifidobacteruim bifidum ([3]; 0.50% MSM, 0 h): 1.85
- Growth of Bifidobacteruim bifidum ([3]; 0.50% MSM, 8 h): 1.99
- Growth of Bifidobacteruim bifidum ([3]; 0.50% MSM, 16 h): 6.53
- Growth of Bifidobacteruim bifidum ([3]; 0.50% MSM, 24 h): 3.14
- Growth of Bifidobacteruim bifidum ([3]; 0.50% MSM, 32 h): 3.52
- Growth of Bifidobacteruim bifidum ([3]; 0.50% MSM, 40 h): 4.62
- Growth of Bifidobacteruim bifidum ([3]; 0.50% MSM, 48 h): 4.51
- Growth of Bifidobacteruim bifidum ([3]; 0.50% MSM, 56 h): 6.05
- Growth of Bifidobacteruim bifidum ([3]; 0.50% MSM, 64 h): 9.55
- Growth of Bifidobacteruim bifidum ([3]; 0.50% MSM, 72 h): 7.52
- Growth of Bifidobacteruim bifidum ([3]; 1% MSM, 0 h): 1.48
- Growth of Bifidobacteruim bifidum ([3]; 1% MSM, 8 h): 1.70
- Growth of Bifidobacteruim bifidum ([3]; 1% MSM, 16 h): 6.81
- Growth of Bifidobacteruim bifidum ([3]; 1% MSM, 24 h): 2.75
- Growth of Bifidobacteruim bifidum ([3]; 1% MSM, 32 h): 3.37
- Growth of Bifidobacteruim bifidum ([3]; 1% MSM, 40 h): 3.48
- Growth of Bifidobacteruim bifidum ([3]; 1% MSM, 48 h): 3.90
- Growth of Bifidobacteruim bifidum ([3]; 1% MSM, 56 h): 8.32
- Growth of Bifidobacteruim bifidum ([3]; 1% MSM, 64 h): 8.02
- Growth of Bifidobacteruim bifidum ([3]; 1% MSM, 72 h): 9.52
- Growth of Bifidobacteruim bifidum ([3]; 5% MSM, 0 h): 1.00
- Growth of Bifidobacteruim bifidum ([3]; 5% MSM, 8 h): 2.29
- Growth of Bifidobacteruim bifidum ([3]; 5% MSM, 16 h): 6.71
- Growth of Bifidobacteruim bifidum ([3]; 5% MSM, 24 h): 5.72
- Growth of Bifidobacteruim bifidum ([3]; 5% MSM, 32 h): 10.32
- Growth of Bifidobacteruim bifidum ([3]; 5% MSM, 40 h): 12.02
- Growth of Bifidobacteruim bifidum ([3]; 5% MSM, 48 h): 10.54
- Growth of Bifidobacteruim bifidum ([3]; 5% MSM, 56 h): 10.92
- Growth of Bifidobacteruim bifidum ([3]; 5% MSM, 64 h): 12.04
- Growth of Bifidobacteruim bifidum ([3]; 5% MSM, 72 h): 12.43
- Growth of Bifidobacteruim bifidum ([3]; […] MSM, 0 h): 1.64
- Growth of Bifidobacteruim bifidum ([3]; […] MSM, 8 h): 1.60
- Growth of Bifidobacteruim bifidum ([3]; […] MSM, 16 h): 6.21
- Growth of Bifidobacteruim bifidum ([3]; […] MSM, 24 h): 2.52
- Growth of Bifidobacteruim bifidum ([3]; […] MSM, 32 h): 3.37
- Growth of Bifidobacteruim bifidum ([3]; […] MSM, 40 h): 3.52
- Growth of Bifidobacteruim bifidum ([3]; […] MSM, 48 h): 3.95
- Growth of Bifidobacteruim bifidum ([3]; […] MSM, 56 h): 8.35
- Growth of Bifidobacteruim bifidum ([3]; […] MSM, 64 h): 8.30
- Growth of Bifidobacteruim bifidum ([3]; […] MSM, 72 h): 10.12
